Biological target: USP7 (Homo sapiens, UniProt Q93009)
Experiment: USP7 inhibitory potency (IC50)
Format: biochemical
Procedure: Activity for compounds described herein is provided in Table 2, wherein potency levels are provided as follows: (Potency: USP7 IC50: A<0.01 μM; B=0.01-0.1 μM; C=>0.1 μM.

Sequence of USP7 (Q93009 whole entry): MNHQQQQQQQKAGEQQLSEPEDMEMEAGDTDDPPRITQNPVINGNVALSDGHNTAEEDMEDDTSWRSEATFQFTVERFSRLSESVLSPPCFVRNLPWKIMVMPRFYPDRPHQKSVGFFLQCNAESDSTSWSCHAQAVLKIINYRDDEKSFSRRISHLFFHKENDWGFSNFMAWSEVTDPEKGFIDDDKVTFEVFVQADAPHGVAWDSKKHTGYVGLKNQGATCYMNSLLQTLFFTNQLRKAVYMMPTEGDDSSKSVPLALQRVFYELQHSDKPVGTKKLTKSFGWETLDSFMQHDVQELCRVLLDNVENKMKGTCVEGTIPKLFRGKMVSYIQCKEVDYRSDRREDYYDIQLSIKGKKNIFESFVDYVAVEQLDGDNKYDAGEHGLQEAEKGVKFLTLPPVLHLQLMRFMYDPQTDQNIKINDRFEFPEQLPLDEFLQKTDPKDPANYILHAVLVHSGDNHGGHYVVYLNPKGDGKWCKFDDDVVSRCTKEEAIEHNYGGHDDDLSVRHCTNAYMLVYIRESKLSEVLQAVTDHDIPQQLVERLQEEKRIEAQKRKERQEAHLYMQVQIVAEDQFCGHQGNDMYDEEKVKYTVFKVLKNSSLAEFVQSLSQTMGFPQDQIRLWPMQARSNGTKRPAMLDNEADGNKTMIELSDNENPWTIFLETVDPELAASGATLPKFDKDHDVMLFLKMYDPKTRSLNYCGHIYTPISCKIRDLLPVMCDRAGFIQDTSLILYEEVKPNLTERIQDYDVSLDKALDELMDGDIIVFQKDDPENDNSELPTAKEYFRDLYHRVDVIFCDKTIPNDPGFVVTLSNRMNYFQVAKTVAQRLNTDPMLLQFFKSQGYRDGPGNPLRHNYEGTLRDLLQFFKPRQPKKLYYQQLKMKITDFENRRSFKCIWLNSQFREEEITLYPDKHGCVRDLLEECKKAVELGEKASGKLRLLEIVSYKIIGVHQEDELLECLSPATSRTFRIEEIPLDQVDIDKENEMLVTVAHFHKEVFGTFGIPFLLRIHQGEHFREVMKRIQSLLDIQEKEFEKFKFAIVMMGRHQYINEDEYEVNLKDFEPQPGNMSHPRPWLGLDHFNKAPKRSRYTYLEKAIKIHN

Molecule | IC50
Cc1cc(Cl)cc(-c2ccnc3cc(CN4C(=O)CCC4=O)sc23)c1C[C@@H]1CNCC(C)(C)O1 [Example 136, (R)-1-((7-(5-chloro-2-((6,6-dimethylmorpholin-2-yl)methyl)-3-methylphenyl)thieno[3,2-b]pyridin-2-yl)methyl)pyrrolidine-2,5-dione] | < 10 nM
Cc1cc(Cl)cc(-c2ncnc3cc(CN4C(=O)C5CCCN5C4=O)sc23)c1CC1CNCC(C)(C)O1 (centres unmarked) [Example 191, 2-((4-(5-chloro-2-((6,6-dimethylmorpholin-2-yl)methyl)-3-methylphenyl)thieno[3,2-d]pyrimidin-6-yl)methyl)tetrahydro-1H-pyrrolo[1,2-c]imidazole-1,3(2H)-dione] | < 10 nM
Cc1cc(Cl)cc(-c2ncnc3cc(CN4C(=O)CCCC4=O)sc23)c1CC1CNCCO1 (centres unmarked) [Example 163, 1-((4-(5-chloro-3-methyl-2-(morpholin-2-ylmethyl)phenyl)thieno[3,2-d]pyrimidin-6-yl)methyl)piperidine-2,6-dione] | < 10 nM
Cc1cc(Cl)cc(-c2ncnc3cc(CN4C(=O)N(C)C(C)(C)C4=O)sc23)c1CC1CNCCO1 (centres unmarked) [Example 200, 3-((4-(5-chloro-3-methyl-2-(morpholin-2-ylmethyl)phenyl)thieno[3,2-d]pyrimidin-6-yl)methyl)-1,5,5-trimethylimidazolidine-2,4-dione] | < 10 nM
Cc1cc(Cl)cc(-c2ncnc3cc(CN4C(=O)CCN(C)C4=O)sc23)c1CC1CNCC(C)(C)O1 (centres unmarked) [Example 193, 3-((4-(5-chloro-2-((6,6-dimethylmorpholin-2-yl)methyl)-3-methylphenyl)thieno[3,2-d]pyrimidin-6-yl)methyl)-1-methyldihydropyrimidine-2,4(1H,3H)-dione] | < 10 nM
Cc1cc(Cl)cc(-c2ccnc3c(F)c(CN4C(=O)CNC4=O)sc23)c1C[C@@H]1CNCCO1 [Example 147, (R)-3-((7-(5-chloro-3-methyl-2-(morpholin-2-ylmethyl)phenyl)-3-fluorothieno[3,2-b]pyridin-2-yl)methyl)imidazolidine-2,4-dione] | 10 to 100 nM
C[C@H]1CNCCN1Cc1c(F)cc(Cl)cc1-c1ncnc2cc(CN3C(=O)C4CC4C3=O)sc12 (stereo partly drawn) [Example 61, 3-((4-(5-chloro-3-fluoro-2-(((S)-2-methylpiperazin-1-yl)methyl)phenyl)thieno[3,2-d]pyrimidin-6-yl)methyl)-3-azabicyclo[3.1.0]hexane-2,4-dione] | 10 to 100 nM
Cc1cc(Cl)cc(-c2ncnc3cc(CN4C(=O)C5CC5C4=O)sc23)c1C[C@@H]1CNCC(C)(C)O1 (stereo partly drawn) [Example 216, 3-((4-(5-chloro-2-(((R)-6,6-dimethylmorpholin-2-yl)methyl)-3-methylphenyl)thieno[3,2-d]pyrimidin-6-yl)methyl)-3-azabicyclo[3.1.0]hexane-2,4-dione] | < 10 nM
Cc1cc(Cl)cc(-c2ncnc3cc(CN4C(=O)C5CC5C4=O)sc23)c1CN1[C@@H](C)CN(C(=O)C(F)(F)F)C[C@@H]1C (stereo partly drawn) [Example 84, 3-((4-(5-chloro-2-(((2S,6S)-2,6-dimethyl-4-(2,2,2-trifluoroacetyl)piperazin-1-yl)methyl)-3-methylphenyl)thieno[3,2-d]pyrimidin-6-yl)methyl)-3-azabicyclo[3.1.0]hexane-2,4-dione] | < 10 nM
Cc1cc(Cl)cc(-c2ccnc3cc(Cn4c(=O)ccn(CC(F)(F)F)c4=O)sc23)c1CN1CCNCCC1=O [Example 255, 3-((7-(5-chloro-3-methyl-2-((7-oxo-1,4-diazepan-1-yl)methyl)phenyl)thieno[3,2-b]pyridin-2-yl)methyl)-1-(2,2,2-trifluoroethyl)pyrimidine-2,4(1H,3H)-dione] | 10 to 100 nM
Cc1cc(Cl)cc(-c2ncnc3cc(CN4C(=O)CCN(C)C4=O)sc23)c1CC1CNCC2(COC2)O1 (centres unmarked) [Example 238, 3-((4-(2-((2,5-dioxa-8-azaspiro[3.5]nonan-6-yl)methyl)-5-chloro-3-methylphenyl)thieno[3,2-d]pyrimidin-6-yl)methyl)-1-methyldihydropyrimidine-2,4(1H,3H)-dione] | < 10 nM
Cc1cc(Cl)cc(-c2ccnc3cc(CN4C(=O)CCCC4=O)sc23)c1CC1CNCCO1 (centres unmarked) [Example 107, 1-((7-(5-chloro-3-methyl-2-(morpholin-2-ylmethyl)phenyl)thieno[3,2-b]pyridin-2-yl)methyl)piperidine-2,6-dione] | < 10 nM
Cc1cc(Cl)cc(-c2ncnc3cc(CN4CCOCC4=O)sc23)c1CC1CNCCO1 (centres unmarked) [Example 172, 4-((4-(5-chloro-3-methyl-2-(morpholin-2-ylmethyl)phenyl)thieno[3,2-d]pyrimidin-6-yl)methyl)morpholin-3-one] | > 100 nM
Cc1cc(Cl)cc(-c2ncnc3cc(CN4C(=O)C5CC5C4=O)sc23)c1CC1CNCCS1 (centres unmarked) [Example 186, 3-((4-(5-chloro-3-methyl-2-(thiomorpholin-2-ylmethyl)phenyl)thieno[3,2-d]pyrimidin-6-yl)methyl)-3-azabicyclo[3.1.0]hexane-2,4-dione] | < 10 nM
Cc1cc(Cl)cc(-c2ccnc3cc(CN4C(=O)CCC4=O)sc23)c1CN1CCNCC1C(F)F (centres unmarked) [Example 16, 1-((7-(5-chloro-2-((2-(difluoromethyl)piperazin-1-yl)methyl)-3-methylphenyl)thieno[3,2-b]pyridin-2-yl)methyl)pyrrolidine-2,5-dione] | 10 to 100 nM
3-((4-(2-((5-oxa-8-azaspiro[3.5]nonan-6-yl)methyl)-5-chloro-3-methylphenyl)thieno[3,2-d]pyrimidin-6-yl)methyl)-3-azabicyclo[3.1.0]hexane-2,4-dione [Example 221] | < 10 nM
Cc1cc(Cl)cc(-c2ccnc3cc(Cn4c(=O)ccn(CC(F)(F)F)c4=O)sc23)c1CN1CCNC(=O)C1 [Example 1, 3-((7-(5-chloro-3-methyl-2-((3-oxopiperazin-1-yl)methyl)phenyl)thieno[3,2-b]pyridin-2-yl)methyl)-1-(2,2,2-trifluoroethyl)pyrimidine-2,4(1H,3H)-dione] | > 100 nM
Cc1cc(Cl)cc(-c2ccnc3cc(CN4C(=O)C5CC5C4=O)sc23)c1CC1CNCCS1(=O)=O (centres unmarked) [Example 100, 3-((7-(5-chloro-2-((1,1-dioxidothiomorpholin-2-yl)methyl)-3-methylphenyl)thieno[3,2-b]pyridin-2-yl)methyl)-3-azabicyclo[3.1.0]hexane-2,4-dione] | 10 to 100 nM
Cc1cc(Cl)cc(-c2ncnc3cc(CN4C(=O)CN(C)C4=O)sc23)c1CN1C[C@@H](C)NC[C@@H]1C [Example 80, 3-((4-(5-chloro-2-(((2S,5R)-2,5-dimethylpiperazin-1-yl)methyl)-3-methylphenyl)thieno[3,2-d]pyrimidin-6-yl)methyl)-1-methylimidazolidine-2,4-dione] | < 10 nM
Cc1cc(Cl)cc(-c2ccnc3cc(CN4C(=O)C5CC5C4=O)sc23)c1CN1CCNC(=O)C1C (centres unmarked) [Example 40, 3-((7-(5-chloro-3-methyl-2-((2-methyl-3-oxopiperazin-1-yl)methyl)phenyl)thieno[3,2-b]pyridin-2-yl)methyl)-3-azabicyclo[3.1.0]hexane-2,4-dione] | 10 to 100 nM
Cc1cc(Cl)cc(-c2ncnc3cc(CN4C(=O)CN(C)C4=O)sc23)c1C[C@@H]1CNCC(C)(C)O1 [Example 275, (R)-3-((4-(5-chloro-2-((6,6-dimethylmorpholin-2-yl)methyl)-3-methylphenyl)thieno[3,2-d]pyrimidin-6-yl)methyl)-1-methylimidazolidine-2,4-dione] | < 10 nM
Cc1cc(Cl)cc(-c2ccnc3cc(CN4C(=O)CCC4=O)sc23)c1CN1[C@@H](C)CN(C)C[C@@H]1C [Example 29, 1-((7-(5-chloro-3-methyl-2-(((2S,6S)-2,4,6-trimethylpiperazin-1-yl)methyl)phenyl)thieno[3,2-b]pyridin-2-yl)methyl)pyrrolidine-2,5-dione] | < 10 nM
Cc1cc(Cl)cc(-c2ncnc3cc(CN4C(=O)C5CC5C4=O)sc23)c1CC1CNCCOC1 (centres unmarked) [Example 185, 3-((4-(2-((1,4-oxazepan-6-yl)methyl)-5-chloro-3-methylphenyl)thieno[3,2-d]pyrimidin-6-yl)methyl)-3-azabicyclo[3.1.0]hexane-2,4-dione] | 10 to 100 nM
Cc1cc(Cl)cc(-c2ccnc3cc(CN4C(=O)CCC4=O)sc23)c1CC1CNCC(C)(C)O1 (centres unmarked) [Example 119, 1-((7-(5-chloro-2-((6,6-dimethylmorpholin-2-yl)methyl)-3-methylphenyl)thieno[3,2-b]pyridin-2-yl)methyl)pyrrolidine-2,5-dione] | < 10 nM
Cc1cc(Cl)cc(-c2ncnc3cc(CN4C(=O)CCC45CC5)sc23)c1CC1CNCC(C)(C)O1 (centres unmarked) [Example 203, 4-((4-(5-chloro-2-((6,6-dimethylmorpholin-2-yl)methyl)-3-methylphenyl)thieno[3,2-d]pyrimidin-6-yl)methyl)-4-azaspiro[2.4]heptan-5-one] | 10 to 100 nM
Cc1cc(Cl)cc(-c2ncnc3cc(CN4C(=O)CN(CCO)C4=O)sc23)c1C[C@@H]1CNCC(C)(C)O1 [Example 276, (R)-3-((4-(5-chloro-2-((6,6-dimethylmorpholin-2-yl)methyl)-3-methylphenyl)thieno[3,2-d]pyrimidin-6-yl)methyl)-1-(2-hydroxyethyl)imidazolidine-2,4-dione] | < 10 nM
Cc1cc(Cl)cc(-c2ccnc3cc(Cn4c(=O)ccn(C)c4=O)sc23)c1CC1CNCCO1 (centres unmarked) [Example 108, 3-((7-(5-chloro-3-methyl-2-(morpholin-2-ylmethyl)phenyl)thieno[3,2-b]pyridin-2-yl)methyl)-1-methylpyrimidine-2,4(1H,3H)-dione] | < 10 nM
Cc1cc(Cl)cc(-c2ncnc3cc(CN4C(=O)C5CC5C4=O)sc23)c1CC1CNCCO1 (centres unmarked) [Example 152, 3-((4-(5-chloro-3-methyl-2-(morpholin-2-ylmethyl)phenyl)thieno[3,2-d]pyrimidin-6-yl)methyl)-3-azabicyclo[3.1.0]hexane-2,4-dione] | < 10 nM
Cc1cc(Cl)cc(-c2ccnc3cc(CN4C(=O)CCC4=O)sc23)c1CN1CCNCC1 [Example 5, 1-((7-(5-chloro-3-methyl-2-(piperazin-1-ylmethyl)phenyl)thieno[3,2-b]pyridin-2-yl)methyl)pyrrolidine-2,5-dione] | 10 to 100 nM

— patent publication US11084829B2, “Ubiquitin-specific-processing protease 7 (USP7) modulators and uses thereof” (RAPT THERAPEUTICS, INC., priority 2018, dated 2021)
